The record followed here is PMC9152706, “Identification of the target and mode of action for the prokaryotic nucleotide excision repair inhibitor ATBC” (Bioscience Reports, 2022).

In this test the target is T1, UvrA (Escherichia coli, UniProt P0A698).
T1 construct: full-length, C-terminal flexible linker, AviTag, TEV site and His tag; Ni-NTA purified from E. coli (BL21 delta-uvrA delta-uvrB used for expression); unlabelled; homodimer
T1 sequence (P0A698 1-940): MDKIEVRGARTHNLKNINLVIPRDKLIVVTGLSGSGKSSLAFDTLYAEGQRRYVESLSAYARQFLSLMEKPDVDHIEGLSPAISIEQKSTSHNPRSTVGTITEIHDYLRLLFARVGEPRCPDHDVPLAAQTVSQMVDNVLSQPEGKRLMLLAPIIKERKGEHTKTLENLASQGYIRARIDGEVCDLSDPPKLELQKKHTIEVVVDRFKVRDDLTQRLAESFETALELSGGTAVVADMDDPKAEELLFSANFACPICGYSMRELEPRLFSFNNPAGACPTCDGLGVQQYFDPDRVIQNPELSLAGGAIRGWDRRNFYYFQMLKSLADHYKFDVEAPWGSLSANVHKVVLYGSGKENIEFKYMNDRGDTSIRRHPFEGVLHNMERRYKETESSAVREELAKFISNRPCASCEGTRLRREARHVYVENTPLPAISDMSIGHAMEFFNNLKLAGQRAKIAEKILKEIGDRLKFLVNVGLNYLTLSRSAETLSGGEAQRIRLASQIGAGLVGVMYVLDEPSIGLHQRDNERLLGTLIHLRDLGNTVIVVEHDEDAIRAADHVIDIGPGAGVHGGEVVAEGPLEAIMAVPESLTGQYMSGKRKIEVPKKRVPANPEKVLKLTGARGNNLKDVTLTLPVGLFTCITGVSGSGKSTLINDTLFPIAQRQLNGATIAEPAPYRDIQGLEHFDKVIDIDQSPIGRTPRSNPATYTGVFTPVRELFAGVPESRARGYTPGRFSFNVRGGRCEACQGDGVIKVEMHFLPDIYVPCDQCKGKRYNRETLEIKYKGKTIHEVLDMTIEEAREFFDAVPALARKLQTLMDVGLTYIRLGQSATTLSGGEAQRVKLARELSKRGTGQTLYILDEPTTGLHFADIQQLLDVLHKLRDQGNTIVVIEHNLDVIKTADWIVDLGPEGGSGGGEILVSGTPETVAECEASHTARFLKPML
Nature of the test: NADH-linked ATPase assay (pyruvate kinase / lactate dehydrogenase). The class given is biochemical. To be noted: 50 µM ATBC, 5 min preincubation; 1 mM ATP; 50 mM Tris-HCl pH 7.5, 50 mM KCl, 10 mM MgCl2; room temperature; poorly soluble, nominal concentration; ATPase site proposed from docking.

SMILES strings stand for the structures.

Take `Nc1nnc(-c2cc3c(ccc4ccccc43)oc2=O)s1` [ATBC, 2-(5-amino-1,3,4-thiadiazol-2-yl)benzo(f)chromen-3-one]: the “% reduction of kcat at 50 μM” value is reported as ~ 70%.
